Results from ChEMBL document CHEMBL3352179, “Inhibition of O-GlcNAcase (OGA): A Potential Therapeutic Target to Treat Alzheimer's Disease” (ACS Med Chem Lett, 2014).

Tests used:
Protein O-GlcNAcase [1] = target: T1, Protein O-GlcNAcase (Homo sapiens, UniProt O60502); assay: Inhibition of human His-tagged OGA using fluorescein mono-beta-D-([…]) glucopyranoside as substrate after 60 mins by fluorescence assay
T1 sequence (O60502 whole entry): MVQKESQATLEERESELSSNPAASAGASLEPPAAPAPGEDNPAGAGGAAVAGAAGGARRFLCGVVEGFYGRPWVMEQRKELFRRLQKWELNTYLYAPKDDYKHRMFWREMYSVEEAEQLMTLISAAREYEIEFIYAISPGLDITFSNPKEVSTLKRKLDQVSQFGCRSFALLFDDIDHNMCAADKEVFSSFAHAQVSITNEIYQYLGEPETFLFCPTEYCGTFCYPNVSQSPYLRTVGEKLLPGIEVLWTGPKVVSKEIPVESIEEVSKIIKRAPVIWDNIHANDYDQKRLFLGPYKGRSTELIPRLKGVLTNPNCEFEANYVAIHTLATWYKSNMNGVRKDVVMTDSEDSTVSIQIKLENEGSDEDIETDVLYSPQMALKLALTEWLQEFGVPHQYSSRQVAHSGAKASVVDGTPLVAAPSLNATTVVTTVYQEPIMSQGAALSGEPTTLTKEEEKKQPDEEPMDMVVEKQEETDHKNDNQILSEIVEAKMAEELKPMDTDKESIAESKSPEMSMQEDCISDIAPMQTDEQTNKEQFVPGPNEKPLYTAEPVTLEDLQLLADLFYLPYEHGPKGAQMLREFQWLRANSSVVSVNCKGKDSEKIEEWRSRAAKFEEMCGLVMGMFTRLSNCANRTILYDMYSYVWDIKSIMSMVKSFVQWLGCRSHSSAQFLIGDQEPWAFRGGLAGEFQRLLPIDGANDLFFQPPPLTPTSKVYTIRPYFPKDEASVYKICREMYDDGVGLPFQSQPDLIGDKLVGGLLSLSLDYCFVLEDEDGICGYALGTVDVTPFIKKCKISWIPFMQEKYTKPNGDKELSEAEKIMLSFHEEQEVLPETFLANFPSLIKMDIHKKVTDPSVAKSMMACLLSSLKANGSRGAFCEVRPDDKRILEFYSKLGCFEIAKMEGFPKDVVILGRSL

Protein O-GlcNAcase [2] = target: T2, Protein O-GlcNAcase (Rattus norvegicus, UniProt Q8VIJ5); assay: Inhibition of OGA in rat B35 cells after 16 hrs; type: cell-based
T2 sequence (Q8VIJ5 whole entry): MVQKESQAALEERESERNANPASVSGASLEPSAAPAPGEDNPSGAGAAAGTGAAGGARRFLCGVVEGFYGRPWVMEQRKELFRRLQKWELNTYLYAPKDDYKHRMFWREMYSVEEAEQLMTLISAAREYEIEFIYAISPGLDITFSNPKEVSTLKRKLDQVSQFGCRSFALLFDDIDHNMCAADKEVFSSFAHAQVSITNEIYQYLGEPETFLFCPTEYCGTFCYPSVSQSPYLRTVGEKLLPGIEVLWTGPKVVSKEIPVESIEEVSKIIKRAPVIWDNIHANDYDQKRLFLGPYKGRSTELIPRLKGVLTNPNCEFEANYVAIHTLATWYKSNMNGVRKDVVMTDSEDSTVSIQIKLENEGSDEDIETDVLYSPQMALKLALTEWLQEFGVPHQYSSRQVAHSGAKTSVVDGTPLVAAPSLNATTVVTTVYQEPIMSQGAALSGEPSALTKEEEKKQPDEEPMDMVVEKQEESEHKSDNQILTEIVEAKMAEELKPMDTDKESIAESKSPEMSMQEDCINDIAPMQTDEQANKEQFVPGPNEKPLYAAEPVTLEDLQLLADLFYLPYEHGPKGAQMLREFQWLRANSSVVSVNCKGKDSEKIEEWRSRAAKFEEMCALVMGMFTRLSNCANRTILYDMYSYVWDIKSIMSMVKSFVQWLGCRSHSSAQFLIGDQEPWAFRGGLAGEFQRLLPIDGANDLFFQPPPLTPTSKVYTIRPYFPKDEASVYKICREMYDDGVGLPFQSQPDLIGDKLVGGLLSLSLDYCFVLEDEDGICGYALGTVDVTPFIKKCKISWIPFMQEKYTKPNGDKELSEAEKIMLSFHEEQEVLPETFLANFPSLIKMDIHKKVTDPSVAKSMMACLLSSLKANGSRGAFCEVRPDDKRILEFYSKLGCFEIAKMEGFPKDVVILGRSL

| IC50 (Protein O-GlcNAcase [1]) [nM] | EC50 (Protein O-GlcNAcase [2]) [nM] | SMILES |
| --- | --- | --- |
| 1000 | 10000 | COC(=O)Nc1ncc(CN2CCC(c3ccccc3)CC2)s1 |
| < 200 | 200 | CC(=O)Nc1ncc(CN2CCC(c3ccccc3)CC2)s1 |
| < 200 | < 200 | CC(=O)Nc1ncc(CN2CCC(c3cccc(C)c3)CC2)s1 |
| 1000 | 1000 | CC(=O)Nc1ncc(CN2CCC(F)(c3ccccc3)CC2)s1 |
